What was measured:
Sprague Dawley rats = test: Forced swim test (FST) in rats; type: in vivo, rat; settings: SC
Procedure: These effects on swimming were stronger than those induced by the control antidepressant desipramine.
Animals. Male Sprague Dawley rats, aged 8-10 weeks, were used in the experiments. Animals were housed in groups of 2 under controlled temperature (22±3° C.) and relative humidity (30-70%) conditions, with 12-hour light/dark cycles, and with ad libitum food and water. These studies were carried out in strict accordance with the requirements of the Committee for the Purpose of Control and Supervision of Experiments on Animals (CPCSEA), India. All efforts were made to minimize suffering.
Drugs and Drug Administration. Compound 2 was prepared as described above. All other compounds were commercially obtained. Test compounds, saline vehicle, and the positive control desipramine were administered subcutaneously (SC), with doses calculated based on the free base. […] All compounds were administered at a volume of 5 mL/kg. Test compounds and vehicle were administered 0.5 h after the start of the training swim (Swim 1) and 23.5 h before the test swim (Swim 2). Desipramine was administered 3 times, at 23.5 h, 5 h, and 1 h before the test swim (Swim 2), each time at a dose of 20 mg/kg.
Forced Swim Test (FST). […] Group size was N=10 per treatment, except for the vehicle and desipramine groups, which were N=20. Rats were handled for about 2 min daily for the 5 days prior to the beginning of the experimental procedure. On the first day of the experiment (i.e., Day 0), post randomization, training swim sessions (Swim 1) were conducted between 12:00 and 18:00 h with all animals by placing rats in individual glass cylinders (46 cm tall×20 cm in diameter) containing 23-25° C. water 30 cm deep for 15 minutes. At the conclusion of Swim 1, animals were dried with paper towels, placed in heated drying cages for 15 minutes, and then returned to their home cages. […]
Behavioral scoring was conducted by observers who were blind to the treatment groups. Animals were continuously observed during Swim 2 and the total time spent engaging in the following behaviors was recorded: immobile, swimming, and climbing. […]

C57BL/6 mice = test: Head twitch response (HTR) in mice; type: in vivo, mouse; settings: SC
[1] = single dose 23.5 h before test swim, vs vehicle

Oc1cccc2[nH]cc(CCN3CCC3)c12 [Compound 2, 3-(2-(azetidin-1-yl)ethyl)-1H-indol-4-ol]
dose with significant effect on immobility in the FST (Sprague Dawley rats; 23.5 h pre-treatment, lowest dose tested): ≤ 0.1 mg/kg | immobility time in the FST (Sprague Dawley rats; [1]): reduced immobility time | swimming time in the FST (Sprague Dawley rats; [1]): significant increases in swimming | Average HTR Over 20-min Test (C57BL/6 mice; dose 0.1 mg/kg): 4.667 | Average HTR Over 20-min Test (C57BL/6 mice; dose 1 mg/kg): 8.667 | Average HTR Over 20-min Test (C57BL/6 mice; dose 10 mg/kg): 9.000

— US20230322735A1, “AZETIDINYL TRYPTAMINES AND METHODS OF TREATING PSYCHIATRIC DISORDERS” (priority 2020, published 2023)
